From patent US9061076B2, “Viral nanoparticle cell-targeted delivery platform” (North Carolina State University, priority 2007, dated 2015)

B1: PVN-CAR-F: native RCNMV conjugated via SMCC with fluorescein-labeled CAR targeting peptide (conjugate)
chain: LSITTPEEMIEKAKGETAYLPCKFTLSPEDQGPLDIEWLISPADNQKVDQVIILYSGDKIYDDYYPDLKGRVHFTSNDLKSGDASINVTNLQLSDIGTYQCKVKKAPGVANKKIHLVVLVKPSGARCYVDGSEEIGSDFKIKCEPKEGSLPLQYEWQKLSDSQKMPTSWLAEMTSSVISVKNASSEYSGTYSCTVRNRVGSDQCLLRLNVVPPSNKAGLIAGAIIGTLLALALIGLIIFCCRKKRREEKYEKEVHHDIREDVPPPKSRTSTARSYIGSNHSSLGSMSPSNMEGYSKTQYNQVPSEDFERTPQSPTLPPAKVAAPNLSRMGAIPVMIPAQSKDGSIV

Key:
HeLa cells [1] = assay: MTT cell viability assay; assay type: cell-based; settings: 7 uM DOX, 24 hours
Method: The effect of DOX-PVN-CD46 on cell viability was measured using an MTT assay (FIG. 10A). HeLa cells were exposed to a free DOX, DOX-PVN, and DOX-PVN-CD46 for 24 hours at DOX concentrations ranging from 0.01 uM to 12 uM prior assaying. […] On the other hand, the percentage of viable cell was approximately 70-80% when the same concentration of free DOX (7 uM) was delivered to the cells. […] The PVN has two desirable properties as a drug delivery platform. First, it sequesters drugs effectively in blood and other biofluids. Second, it delivers drugs inside cells triggered by divalent ion concentration and with a timed release that increases the efficacy of drugs that rely on interactions with DNA. FACS was used to determine the dose-response of DOX-PVN-CD46-F after a 2-hour exposure (FIG. 10B). Cell detachment is an early sign of apoptosis. One method to determining cell survival is to count the number of adherent cells. At a PVN concentration of 1 pM, the number of adherent cells is reduced by approximately 25% (FIG. 10B). The FACS experiments in the lower panel of FIG. 10B counts only the adherent cells. Thus, the reduction in viable (adherent) cells accounts for the low levels of PVN internalization measured by fluorescence intensity. The number of adherent cells decreases to 50% at a DOX-PVN-CD46-F concentration of 100 μM (data not shown).

HeLa cells [2] = assay: PVN internalization by FACS / fluorescent microscopy; assay type: cell-based
Method: Flow cytometry measurements were carried out with the Becton Dickinson FACSCalibur® running Cellquest Pro. Flow cytometry is sometimes referred to as “FACS” herein. The positive population of cells is determined by gating the right-hand tail of the distribution of the negative control sample for each individual cell line at 1%. This setting can then used to determine the percentage of positive cells for each of the above markers for each individual cell line.
We have observed that PVNs with targeting peptides attached to the surface can be internalized into mammalian cells. […] Surface coverage can be determined in a fluorometer using a fluorescein standard curve to quantify the number of fluorophores in the sample and the UV-vis spectrum to quantify the concentration of RCNMV. Based on the measured fluorescence, we determined that the surface of the PVN was labeled with approximately 60 CD46-F peptides. The endocytosis of these formulations was detected using fluorescent microscopy and FACS. FACS quantifies PVN cellular uptake and cargo release in a two-channel fluorescence measurement on populations of hundreds of thousands of cells. […]

Row | Molecule | percentage of viable cells (HeLa cells [1]) | internalization in HeLa versus HepG2 cell lines (HeLa cells [2])
1 | COc1cccc2c1C(=O)c1c(O)c3c(c(O)c1C2=O)C[C@@](O)(C(=O)CO)C[C@@H]3O[C@H]1C[C@H](N)[C@H](O)[C@H](C)O1 [DOX, doxorubicin] | 70-80% | –
2 | B1 | – | nearly the same level of internalization
